Series [1] is described as follows: Stability in monkey liver microsomes in vitro. The class given is in vitro ADME. The settings on record: for half-life at 0.01 μmol/L: monkey liver microsomes 0.5 mg/mL protein, NADPH, 37° C., 1 μmol/L test compound; for Prolonging rates: prolongation of t1/2 in monkey liver microsomes versus Brigatinib; for half-life period compared to the original drug Brigatinib: monkey liver microsomes, statement in words. How it is done:
300 μL of a final incubation system contains 30 μL of monkey liver microsomes (protein concentration: 0.5 mg/mL, American BD Company), 30 μL of NADPH+MgCl2, 3 μL of a substrate (a solution of 1 μmol/L test compound in acetonitrile) and 237 μL of PBS buffer solution. The above incubation system was made in duplicate, each of 0.3 mL.
For each sample, an evenly mixed solution of the substrate and enzyme with a total volume of 270 μL was first prepared, and after pre-incubation at 37° C. for 5 min, 30 μL of NADPH+MgCl2 was added and mixed. 40 μL of the reaction solution was taken respectively at 0, 15, 30, 60 and 90 min, and the reaction was stopped by 300 μL of ice-cold acetonitrile containing an internal standard. In addition, three blanks (KB) were set, each of 300 μL (KB1: no NADPH; KB2: no substrate; KB3: no enzyme).
40 μL of the incubation sample was pipetted out, added with 400 μL of ice-cold acetonitrile containing an internal standard, vortexed for 5 min and centrifuged (13000 rpm, 4° C.) for 10 min. 80 μL of the supernatant was pipetted out in a loading plate, and then 80 μL of 50% acetonitrile aqueous solution was added to the plate and mixed. 1 μL of the mixture was pipetted out for LC/MS/MS assay and the chromatogram was recorded.
(Liver microsomes are a subcellular fraction often used to study metabolism.)

The subject of series [2] is human lung cancer cell NCI-H3122. In words: Inhibition of proliferation in vitro, SRB method. The series is classed as cell-based. Conditions: NCI-H3122 cells expressing EML4-ALK fusion protein, 72 hours, mean±standard deviation. The procedure: 1.1 Cells: human lung cancer cell line NCl—H3122, expressing EML4-ALK fusion protein.
1.2 Main reagents: sulfonyl rhodamine B, RPMI-1640 liquid medium, dimethyl sulfoxide (DMSO), trichloromethane (chloroform).
1.3 Instruments: Varioskan Flash microplate reader.
1.4 Solution preparation: an appropriate amount of a series of test compounds was taken and dissolved using 5% chloroform+95% DMSO, to form a stock solution of 20 mM, which was stored at −20° C. in aliquots. The positive drug Crizotinib was taken and dissolved using 5% chloroform+95% DMSO, and the stock solution was diluted with fresh medium to a working concentration before use. 95 μl DMSO and 5 μl chloroform were taken, mixed together, and diluted with fresh medium to a working concentration before use.
The tumor cell line used in tests was cultured in RPM11640 medium containing 10% inactivated Hyclone serum or fetal bovine serum, 100 IU/mL penicillin and 100 IU/mL streptomycin, in a 5% CO2 incubator at 37° C. NCl—H3122 cells were inoculated into a 96-well plate at 5000/well. It was ensured that the cells were in logarithmic growth phase during the whole test.
Groups of series of test compounds, negative control and Crizotinib (positive control) were set up in this test. For each test compound group, 6 concentration gradients by 3-fold serial dilution were set, and three wells were for each concentration. For positive control group, 6 concentration gradients by 3-fold serial dilution were set, and three wells were for each concentration. Negative control was 5% chloroform+95% DMSO (the same concentration as that of test compound at 100 nM), and 6 wells were set.
After the cells were treated with the drugs for 72 hours, the culture medium was discarded. A pre-chilled 10% trichloroacetic acid (TCA) solution was added into each well to fix the cells and the plate was placed in a refrigerator at 4° C. to fix. Each well of the plate was washed with deionized water for 5 times to remove trichloroacetic acid solution. After being dried in air, each well was added with SRB solution (4 mg/ml) prepared with 1% acetic acid and then kept for 20 minutes at room temperature. After the liquid was discarded, each well was washed with 1% acetic acid for 5 times to remove uncombined SRB dye, and then dried in air. An appropriate volume of 10 mM Tris-base (trimethylolamine methane) solution at pH 10.5 was added into each well to dissolve the cells. The plate was shaken on a plate shaker for 10 minutes. The absorbance (OD) value was measured at a wavelength of 490 nm in a microplate reader.
According to the OD values measured by microplate reader, an inhibition rate was calculated as the following formula: Survival rate (%)=OD of drug well/OD of control well×100%,
If the survival rate was ≥100%, it was recorded as 100%.
Using Calcusyn software, IC50 was calculated, and mean and standard deviation thereof were calculated, and the data was expressed as: mean±standard deviation.
In general terms: In SRB staining, fixed cells bind dye roughly in proportion to their protein.

SMILES strings stand for the structures.

For orientation: half-life means the time in which the quantity being followed falls by half. Usually IC50 stands for the concentration needed to halve the response being measured. For `COc1cc(N2CCC(N3CCN(C)CC3)CC2)ccc1Nc1ncc(Cl)c(Nc2ccccc2P(C)(C)=O)n1` [Brigatinib, 5-chloro-N^4-[2-(dimethylphosphonyl)phenyl]-N^2-{2-methoxy-4-[4-(4-methylpiperazin-1-yl)piperidin-1-yl]phenyl}pyrimidine-2,4-diamine], the half-life at 0.01 μmol/L in series [1] came out at 170 min. In addition, the IC50 in series [2] was 13.3 ± 1.6 nM.
With `[2H]C1([2H])CN(C)CC([2H])([2H])N1C1CCN(c2ccc(Nc3ncc(Cl)c(Nc4ccccc4P(C)(C)=O)n3)c(OC)c2)CC1` [Compound I-4, (2-((5-chloro-2-((2-methoxy-4-(4-(4-methyl[2,2,6,6-D4]piperazin-1-yl)piperidine-1-yl)phenyl)amino)pyrimidin-4-yl)amino)phenyl)dimethyl phosphorus oxide], in series [1], the half-life at 0.01 μmol/L worked out at 176 min and the Prolonging rates worked out at 4%. In series [2], this molecule displayed an IC50 of 11.1 ± 2.07 nM.
For the molecule `[2H]C1([2H])N(C)C([2H])([2H])C([2H])([2H])N(C2CCN(c3ccc(Nc4ncc(Cl)c(Nc5ccccc5P(C)(C)=O)n4)c(OC)c3)CC2)C1([2H])[2H]` [Compound I-6, (2-((5-chloro-2-((2-methoxy-4-(4-(4-methyl[D8]piperazin-1-yl)piperidin-1-yl)phenyl)amino)pyrimidin-4-yl)amino)phenyl)dimethyl phosphorus oxide], in series [1], the half-life at 0.01 μmol/L turned out to be 223 min, the “half-life period compared to the original drug Brigatinib” value is “significantly prolong the half-life period” and the Prolonging rates is on record as 31%. The same molecule returned an IC50 in series [2] of 9.99 ± 2.31 nM.
As to `[2H]C1([2H])CN(C2CCN(c3ccc(Nc4ncc(Cl)c(Nc5ccccc5P(C)(C)=O)n4)c(OC)c3)CC2)CC([2H])([2H])N1C` [Compound I-9, (2-((5-chloro-2-((2-methoxy-4-(4-(4-methyl[3,3,5,5-D4]piperazin-1-yl)piperidin-1-yl)phenyl)amino)pyrimidin-4-yl)amino)phenyl)dimethyl phosphorus oxide], in series [1], the half-life at 0.01 μmol/L was 214 min and the Prolonging rates is 26%. Also, inhibition in series [2] was half-maximal at 7.65 ± 1.07 nM (IC50).
Turning to `[2H]C([2H])([2H])N1CCN(C2CCN(c3ccc(Nc4ncc(Cl)c(Nc5ccccc5P(C)(C)=O)n4)c(OC)c3)CC2)CC1` [Compound I-2, (2-((5-chloro-2-((2-methoxy-4-(4-(4-[D3]methylpiperazin-1-yl)piperidin-1-yl)phenyl)amino)pyrimidin-4-yl)amino)phenyl)dimethyl phosphorus oxide], in series [1], the half-life at 0.01 μmol/L was found to be 236 min, the “half-life period compared to the original drug Brigatinib” value is on record as “significantly prolong the half-life period” and the Prolonging rates amounted to 39%. The same molecule had an IC50 in series [2] of 9.45 ± 1.79 nM.
For the molecule `C[C@@H](Oc1cc(-c2cnn(C3CCNCC3)c2)cnc1N)c1c(Cl)ccc(F)c1Cl` [Crizotinib, reference compound], half-maximal inhibition in series [2] (IC50) required 11.1 ± 0.69 nM.
On to `[2H]C([2H])([2H])Oc1cc(N2CCC(N3CCN(C)CC3)CC2)ccc1Nc1ncc(Cl)c(Nc2ccccc2P(C)(C)=O)n1` [Compound I-1, (2-((5-chloro-2-((2-[D3]methoxy-4-(4-(4-methylpiperazin-1-yl)piperidin-1-yl)phenyl)amino)pyrimidin-4-yl)amino)phenyl)dimethyl phosphorus oxide], for which, in series [1], the half-life at 0.01 μmol/L came to 229 min, the “half-life period compared to the original drug Brigatinib” value was “significantly prolong the half-life period” and the Prolonging rates was 35%. This molecule displayed an IC50 in series [2] of 10 ± 1.05 nM.
For `[2H]C([2H])([2H])N1C([2H])([2H])CN(C2CCN(c3ccc(Nc4ncc(Cl)c(Nc5ccccc5P(C)(C)=O)n4)c(OC)c3)CC2)CC1([2H])[2H]` [Compound I-7] the same measures were 227 min, “significantly prolong the half-life period”, 34% and 9.89 ± 0.76 nM.
As for `[2H]C([2H])([2H])Oc1cc(N2CCC(N3CCN(C([2H])([2H])[2H])CC3)CC2)ccc1Nc1ncc(Cl)c(Nc2ccccc2P(C)(C)=O)n1` [Compound I-3, (2-((5-chloro-2-((2-[D3]methoxy-4-(4-(4-[D3]methylpiperazin-1-yl)piperidin-1-yl)phenyl)amino)pyrimidin-4-yl)amino)phenyl)dimethyl phosphorus oxide], in series [1], the half-life at 0.01 μmol/L is 199 min and the Prolonging rates stood at 17%. Besides, in series [2], the IC50 worked out at 12.7 ± 2.37 nM.
